Experimental data reported in article PMC11585924, “Direct measurements of neurosteroid binding to specific sites on GABAA receptors” (British journal of pharmacology, 2024).

Biological target: ELIC-α1^W246LGABAAR (Homo sapiens, UniProt P14867, W273L)
Test: Inhibition of MQ290 FRET by NS in W246L receptors
Type: binding
Conditions: 30 μM NS; MQ290 1 μM
Procedure: One hundred microlitres of ELIC-α1GABAAR (0.3 μM) was transferred into a 50-μl window quartz cuvette maintained at 4°C, and NaI was added to the protein sample to a final concentration of 100 mM and incubated for 10 min. MQ290 was then added at a concentration of 3 μM for 3α-OH NS inhibition curves or 1 μM for 3β-OH NS inhibition curves and incubated for 30 min. One-microlitre aliquots of 3α-OH and 3β-OH NS from their corresponding stock solutions (prepared in Buffer A + 0.015% DDM) were added to achieve concentrations between 0.01 and 30 μM. The background emission spectra of ligands alone were obtained for each ligand concentration in the absence of protein and were subtracted from the protein-ligand emission spectra to yield background subtracted data. The MQ290 FRET spectra for different ligand concentrations were estimated using the method described above. The 370-nm intensities of the FRET spectra were plotted against ligand concentration and fitted to a four-parameter logistic curve to obtain IC50 data (GraphPad Software version 9.4.0, San Diego, CA). Ki values were calculated using the relationship: Ki=IC50/1+LT/Kd

ELIC-α1^W246LGABAAR, sequence (P14867 other isoform, or with tags, fused parts or gaps W273L): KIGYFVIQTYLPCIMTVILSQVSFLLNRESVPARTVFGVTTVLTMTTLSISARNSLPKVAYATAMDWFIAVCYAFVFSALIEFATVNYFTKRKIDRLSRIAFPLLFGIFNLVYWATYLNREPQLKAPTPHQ
ELIC-α1^W246LGABAAR, sequence (P0C7B7 1-198, further chain): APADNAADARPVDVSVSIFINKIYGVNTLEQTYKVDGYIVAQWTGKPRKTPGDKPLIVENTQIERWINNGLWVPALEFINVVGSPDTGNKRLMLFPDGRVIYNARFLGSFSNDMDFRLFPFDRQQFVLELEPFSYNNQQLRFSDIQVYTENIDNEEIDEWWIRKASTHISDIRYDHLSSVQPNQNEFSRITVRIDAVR

## CC(=O)[C@H]1CC[C@H]2[C@@H]3CC[C@H]4C[C@@H](O)CC[C@]4(C)[C@H]3CC[C@]12C [Epi-AlloP, epi-allopregnanolone]
  inhibition of remaining MQ290 FRET signal in W246L: reduced by neither
